Results published in PubChem BioAssay AID330 (DTP/NCI, 2004).
“And” between values parts separate entries of the source, which are not always exact repeats. Equal values may be shown once. Toxic doses and inconclusive results are not listed. The calls were made as follows: active = survival T/C of 150% or more; inactive = T/C below 125% in these data. Numbered stars: 1 amine (or outer) side, 2 acyl side, 3 side chain; on linkers, the order of the positions; unused ones are H or OH. Peptide text beside a SMILES is read from it. γGlu = O=C(O)[CH](CCC(=O)[*:2])N[*:1]

Test system: P388 leukemia ip, CD2F1 mice, survival T/C
Assay: NCI In Vivo Anticancer Drug Screen. Data for tumor model P388 Leukemia (intraperitoneal) in CD2F1 (CDF1) mice
Conditions: endpoint: median survival time, higher = longer survival
In short: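 Mice carrying the transplanted tumor received test compound or vehicle. Survival was recorded in each group, and the value is the treated-group measurement divided by that of the vehicle-treated control group.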

[1] = dose: 50.0 mg/kg/injection, schedule: Q01DX009 (ip), vehicle: saline with Tween-80
[2] = dose: 100.0 mg/kg/injection, schedule: Q01DX009 (ip), vehicle: saline with Tween-80
[3] = dose: 200.0 mg/kg/injection, schedule: Q01DX009 (ip), vehicle: saline with Tween-80
[4] = dose: 60.0 mg/kg/injection, schedule: Q01DX005 (ip), vehicle: saline with Tween-80
[5] = dose: 100.0 mg/kg/injection, schedule: Q01DX001 (ip), vehicle: saline
[6] = dose: 200.0 mg/kg/injection, schedule: Q01DX001 (ip), vehicle: saline
[7] = dose: 400.0 mg/kg/injection, schedule: Q01DX001 (ip), vehicle: saline
[8] = dose: 25.0 mg/kg/injection, schedule: Q01DX009 (ip), vehicle: saline
[9] = dose: 120.0 mg/kg/injection, schedule: Q01DX005 (ip), vehicle: saline with Tween-80
[10] = dose: 240.0 mg/kg/injection, schedule: Q01DX005 (ip), vehicle: saline with Tween-80
[11] = dose: 50.0 mg/kg/injection, schedule: Q01DX005 (ip), vehicle: Klucel (hydroxypropylcellulose) (HPC)
[12] = dose: 100.0 mg/kg/injection, schedule: Q01DX005 (ip), vehicle: Klucel (hydroxypropylcellulose) (HPC)
[13] = dose: 200.0 mg/kg/injection, schedule: Q01DX005 (ip), vehicle: Klucel (hydroxypropylcellulose) (HPC)
[14] = dose: 50.0 mg/kg/injection, schedule: Q01DX005 (ip), vehicle: saline
[15] = dose: 100.0 mg/kg/injection, schedule: Q01DX005 (ip), vehicle: saline

Measured: T/C

O=S(=O)(Nc1cc2ccccc2cc1NS(=O)(=O)N1CCCCC1)N1CCCCC1
inactive: dose: 50.0 mg/kg/injection, schedule: Q01DX009 (ip), vehicle: Klucel (hydroxypropylcellulose) (HPC) 93 % of control | dose: 100.0 mg/kg/injection, schedule: Q01DX009 (ip), vehicle: Klucel (hydroxypropylcellulose) (HPC) 89 % of control

CCC[CH2][Hg][O]C(C)=O
inactive: dose: 2.0 mg/kg/injection, schedule: Q01DX009 (ip), vehicle: other 95 % of control | dose: 3.0 mg/kg/injection, schedule: Q01DX009 (ip), vehicle: other 100 % of control | dose: 4.5 mg/kg/injection, schedule: Q01DX009 (ip), vehicle: other 113 % of control

CC(C)(C)C(=O)CC(=O)C(C)(C)C.[Cl][Sb]1([Cl])[c]2ccccc2Cc2cccc[c]21
inactive: [1] 100 % of control | [2] 108 % of control | [3] 107 % of control

COC(=O)c1nnn(-c2cc(Cl)ccc2Cl)c1N
inactive: [4] 91 % of control

COc1ccc(C#CC(O)C(F)(F)F)cc1 (stereo not drawn)
inactive: dose: 25.0 mg/kg/injection, schedule: Q01DX009 (ip), vehicle: saline with Tween-80 102 % of control | [1] 106 % of control | [2] 107 % of control

O=C1NN=C(c2ccccc2)CS1
inactive: [1] 98 % of control | [2] 101 % of control

C=C1CC2(CC3(C(C)C)CC3C2C)OC1=O (stereo not drawn)
inactive: [5] 100 % of control | [6] 99 % of control | [7] 110 % of control

CN1CCCN(C)C1c1ccccc1
inactive: [8] 105 % of control | dose: 50.0 mg/kg/injection, schedule: Q01DX009 (ip), vehicle: saline 110 % of control | dose: 100.0 mg/kg/injection, schedule: Q01DX009 (ip), vehicle: saline 95 % of control

[Cu+2].[NH-]CC(=O)NC(Cc1ccccc1)C(=O)O.[NH-]CC(=O)NC(Cc1ccccc1)C(=O)O (stereo not drawn)
inactive: dose: 12.5 mg/kg/injection, schedule: Q04DX003 (ip), vehicle: saline 93 % of control | dose: 25.0 mg/kg/injection, schedule: Q04DX003 (ip), vehicle: saline 90 % of control | dose: 50.0 mg/kg/injection, schedule: Q04DX003 (ip), vehicle: saline 100 % of control

CC1(O)Cc2ccc3c(c2C(=O)C1O)C(=O)c1cccc(O)c1C3=O (stereo not drawn)
inactive: dose: 3.12 mg/kg/injection, schedule: Q01DX005 (ip), vehicle: distilled water + Tween-80 + alcohol 98 % of control | dose: 6.25 mg/kg/injection, schedule: Q01DX005 (ip), vehicle: distilled water + Tween-80 + alcohol 100 % of control | dose: 12.5 mg/kg/injection, schedule: Q01DX005 (ip), vehicle: distilled water + Tween-80 + alcohol 100 % of control | dose: 25.0 mg/kg/injection, schedule: Q01DX005 (ip), vehicle: distilled water + Tween-80 + alcohol 100 % of control

Cc1ccc(-n2c(N)c(C#N)c3c(c2=S)CCC3)cc1
inactive: dose: 50.0 mg/kg/injection, schedule: Q01DX005 (ip), vehicle: Klucel + Tween-80 100 % of control | dose: 100.0 mg/kg/injection, schedule: Q01DX005 (ip), vehicle: Klucel + Tween-80 107 % of control | dose: 200.0 mg/kg/injection, schedule: Q01DX005 (ip), vehicle: Klucel + Tween-80 96 % of control

CC1=C(/C=C/C(C)=C/C=C/C(C)=C/C=C2/CCOC2=O)C(C)(C)CCC1
inactive: dose: 50.0 mg/kg/injection, schedule: Q01DX001 (ip), vehicle: saline with Tween-80 96 % of control | dose: 100.0 mg/kg/injection, schedule: Q01DX001 (ip), vehicle: saline with Tween-80 96 % of control | dose: 200.0 mg/kg/injection, schedule: Q01DX001 (ip), vehicle: saline with Tween-80 100 % of control

CCCCc1c(C#N)c(=O)n2c(N)c(C(=O)OCC)cnc2c1SC
inactive: dose: 3.75 mg/kg/injection, schedule: Q01DX005 (ip), vehicle: saline with Tween-80 104 % of control and 108 % of control | dose: 7.5 mg/kg/injection, schedule: Q01DX005 (ip), vehicle: saline with Tween-80 117 % of control and 120 % of control | dose: 15.0 mg/kg/injection, schedule: Q01DX005 (ip), vehicle: saline with Tween-80 120 % of control | [4] 98 % of control | [9] 92 % of control

CCc1ncc(CO)n1Cc1cccc2ccccc12
inactive: [1] 100 % of control | [2] 102 % of control | [3] 103 % of control

NC(=O)c1sc(N2CCCC2)nc1N
inactive: [4] 112 % of control | [9] 105 % of control | [10] 118 % of control

CCOC(=O)C1=C(O)C(C)(c2ccc(O)cc2O)N=C1c1ccccc1 (stereo not drawn)
inactive: [11] 95 % of control | [12] 96 % of control | [13] 89 % of control

CCN(CC)CCOC(=O)Cc1cccc2c(=O)cc(-c3ccccc3)oc12
inactive: dose: 12.5 mg/kg/injection, schedule: Q01DX009 (ip), vehicle: saline 120 % of control | [8] 108 % of control and 97 % of control | [14] 100 % of control | [5] 102 % of control | [15] 108 % of control | dose: 100.0 mg/kg/injection, schedule: Q04DX002 (ip), vehicle: saline 107 % of control | dose: 100.0 mg/kg/injection, schedule: Q04DX003 (ip), vehicle: saline 107 % of control | dose: 100.0 mg/kg/injection, schedule: Q08DX002 (ip), vehicle: saline 111 % of control | [6] 114 % of control | dose: 200.0 mg/kg/injection, schedule: Q04DX002 (ip), vehicle: saline 110 % of control | dose: 200.0 mg/kg/injection, schedule: Q08DX002 (ip), vehicle: saline 117 % of control | dose: 300.0 mg/kg/injection, schedule: Q01DX001 (ip), vehicle: saline 117 % of control | dose: 300.0 mg/kg/injection, schedule: Q04DX002 (ip), vehicle: saline 114 % of control | dose: 300.0 mg/kg/injection, schedule: Q08DX002 (ip), vehicle: saline 112 % of control | [7] 116 % of control

CCCCCc1nnc2n1N=C(c1ccc(Cl)cc1)CS2
inactive: [4] 100 % of control | [9] 92 % of control | [10] 91 % of control

NNC(=O)c1ccccc1O
inactive: [1] 100 % of control | [2] 100 % of control

Cc1ccc(C(=Nc2ccccc2Cl)N(O)c2ccccc2)cc1
inactive: [11] 107 % of control | [12] 102 % of control | [13] 95 % of control

COc1cc[c]([Sn]([O][Sn]([Cl])([c]2ccc(OC)cc2)[c]2ccc(OC)cc2)[c]2ccc(OC)cc2)cc1
inactive: dose: 3.12 mg/kg/injection, schedule: Q01DX005 (ip), vehicle: Klucel (hydroxypropylcellulose) (HPC) 97 % of control | dose: 6.25 mg/kg/injection, schedule: Q01DX005 (ip), vehicle: Klucel (hydroxypropylcellulose) (HPC) 116 % of control and 92 % of control | dose: 12.5 mg/kg/injection, schedule: Q01DX005 (ip), vehicle: Klucel (hydroxypropylcellulose) (HPC) 111 % of control | dose: 25.0 mg/kg/injection, schedule: Q01DX005 (ip), vehicle: Klucel (hydroxypropylcellulose) (HPC) 120 % of control

NC(CCC(=O)NC(CCC(=O)O)C(=O)NC(CCC(=O)O)C(=O)O)C(=O)O (stereo not drawn) (γGlu-Glu-Glu-OH; configuration not given here)
inactive: [14] 98 % of control | [15] 95 % of control | dose: 200.0 mg/kg/injection, schedule: Q01DX005 (ip), vehicle: saline 102 % of control

O=C1C=CC(=CC=C2C=CN(CCCCCCO)C=C2)C=C1
inactive: [4] 105 % of control | [9] 116 % of control | [10] 122 % of control

COc1ccc2c(c1OC)C(=O)OC2C(=O)NCCc1ccc2c(c1)OCO2 (stereo not drawn)
inactive: [11] 92 % of control | [12] 92 % of control | [13] 93 % of control
